Measurements published in the NIST ThermoML archive (doi:10.1021/je400821q).

Assay: osmotic coefficient (dimensionless); mn = molality of the nth substance listed, in mol/kg
Details: 308.15 K, Liquid, Osmomat K-7000

C[N+](C)(C)C.[Br-] [tetramethylammonium bromide] + O
Details	osmotic coefficient
m1 = 0.01285	0.9931
m1 = 0.02557	0.9742
m1 = 0.03787	0.9583
m1 = 0.0549	0.948
m1 = 0.06504	0.94
m1 = 0.07726	0.9311
m1 = 0.0956	0.9195
m1 = 0.1326	0.8936
m1 = 0.1678	0.8796
m1 = 0.203	0.8696
m1 = 0.2383	0.8623
m1 = 0.3083	0.8489

C[N+](C)(C)C.[Cl-] [tetramethylammonium chloride] + O
Details	osmotic coefficient
m1 = 0.01861	0.9937
m1 = 0.03679	0.9747
m1 = 0.05507	0.958
m1 = 0.07403	0.9487
m1 = 0.09359	0.9393
m1 = 0.1112	0.9297
m1 = 0.1397	0.9173
m1 = 0.1877	0.8997
m1 = 0.2352	0.8878
m1 = 0.284	0.8757
m1 = 0.333	0.8675

CCCC[N+](CCCC)(CCCC)CCCC.[Br-] [tetrabutylammonium bromide] + O
Details	osmotic coefficient
m1 = 0.00627	0.9763
m1 = 0.0125	0.9517
m1 = 0.02562	0.9279
m1 = 0.03159	0.9191
m1 = 0.03774	0.9126
m1 = 0.04597	0.9006
m1 = 0.06502	0.8805
m1 = 0.07496	0.8725
m1 = 0.113	0.8403
m1 = 0.1459	0.8228
m1 = 0.1775	0.8131
m1 = 0.2126	0.8046
m1 = 0.2558	0.794
m1 = 0.3305	0.785

CC[N+](CC)(CC)CC.[Br-] [tetraethylammonium bromide] + O
Details	osmotic coefficient
m1 = 0.00966	0.9933
m1 = 0.01943	0.9737
m1 = 0.03868	0.9492
m1 = 0.0491	0.9327
m1 = 0.05837	0.9256
m1 = 0.07077	0.916
m1 = 0.09678	0.8994
m1 = 0.1197	0.8851
m1 = 0.1561	0.869
m1 = 0.2146	0.85
m1 = 0.2799	0.8376
m1 = 0.3398	0.8275

C[N+](C)(C)C.[I-] [tetramethylammonium iodide] + O
Details	osmotic coefficient
m1 = 0.01012	0.9766
m1 = 0.02006	0.9573
m1 = 0.0301	0.9365
m1 = 0.04063	0.9245
m1 = 0.04966	0.9108
m1 = 0.05912	0.8995
m1 = 0.07116	0.883
m1 = 0.1026	0.8569
m1 = 0.1286	0.8396
m1 = 0.1527	0.8277
m1 = 0.1802	0.8188
